Assay results as given in patent US4548927A, “Method and agents for raising animal tolerance to oxidant stress-inducing antibiotics” (priority 1983, dated 1985).

Assays:
hepatic GSH = experiment: Effect of methylene blue on hepatic GSH levels (Example I); assay type: in vivo, CD2 F1 female mice; conditions: 25 mg methylene blue iv; 4 h; 33 week old; n=9; saline 15.03±4.33; f=6.03, p<0.03
Method: Total glutathione, oxidized and reduced (GSSG and GSH respectively), was determined by a modification of the method of Tietze (Tietze, F., ANAL. BIOCHE., 27:502-522 (1969). GSH was determined by the method of Prins and Loos (Prins, H. K. and Loos, J. A., "In Biochemical Methods in Red Cell Genetics", J. Yunis, ed., Academic Press, New York, (1969)).
Because maintenance of GSH is an NADPH-dependent process, decrements in intracellular NADPH were postulated to lead to a decrease in GSH concentration. […] Hepatic GSH was similarly observed and noted to behave in corresponding fashion.

heart = experiment: Cardiac evaluation / heart damage score and autopsy, Study No. 1 (Example II); assay type: in vivo, Balb/c female mice
Text: A pathologist examined the heart of each mouse without prior knowledge of whether the animal received doxorubicin or placebo and methylene blue ur placebo. Cages were inspected twice daily for dead animals and autopsies were done immediately. The animals' hearts were washed in normal saline, fixed in formalin and embedded in glycol methacrylate. One-micron sections were inspected by light microscopy. The condition of the hearts was scored as follows: normal-1; slightly damaged-2; moderately damaged-3; severely damaged-4. Five specific categories or criteria were utilized for this evaluation: vacuolization; myofibrillar and nuclear degeneration; necrosis; interstitial edema; and interstitial inflammation. The numerical scores were averaged for each heart to yield an overall tabulation of damage.
In the course of this study, the cages were inspected twice daily for dead animals, and within twelve hours of death an autopsy was performed upon each animal that died. The heart was excised, inspected, washed in normal saline and fixed in 10% formalin. Upon terminatiun of this study, animals which had received no doxorubicin were killed by cervical dislocation and their hearts were handled in accordance with the procedures outlined earlier above.
Nonetheless, this difference in mean value was not statistically significant at the 5% level (f=2.3, p<0.1 and>0.05).

doxorubicin lethality [1] = experiment: Effects of methylene blue on doxorubicin toxicity, survival, Study No. 2 (Example II)
Method: (§1) Mice were obtained from Laboratory Supply Company, Inc., Indianapolis, Indiana. […] The light was maintained between 6:00 in the morning and 6:00 at night, and food and water were freely available. The rooms the mice were maintained in were sound insulated and kept at a constant relative humidity with a temperature ranging between 23° and 25° C. All animals were kept undisturbed except for a weekly cage cleaning, for 21 to 28 days after receipt from the animal supplier and prior to the experimentation. Four mice of the same sex were kept in each cage because of the well-known effects of isolation upon various biologic parameters. […] (See, Levi, F., Halberg, F., Haus, E., Sanchez, S., Sothern, R. B., Halberg, E., Hrushesky, W., Brown, H., Scheving, L. E., and Kennedy, B. J., "Synethetic Adrenocorticotropin for Optimizing Murine Circadian Chronotolerance for Adriamycin", CHRONOBIOLOGIA. 7(#2):227-244 (1980)).
(§2) The anthracycline antibiotic doxorubicin (NDC 38242-874-10, obtained from Adria Laboratories, Inc., Columbus, Ohio) was prepared to a concentration of 2 mg/ml in saline immediately prior to administration to the mice. Administration was by injection either intravenously through a transilluminated tail vein or intraperitoneally. The doxorubicin was administered in an amount per body weight of mouse of 18 mg/kg.
T-tests were used when comparing variances between two groups. […]

doxorubicin lethality [2] = experiment: Effect of lesser doses of methylene blue on doxorubicin toxicity, survival (Example III)
Method: as §1, §2
T-tests were used when comparing variances between two groups. When the variance of means were compared among several groups, analysis of variance was used. Multivariate mean analysis was used when comparing groups of individuals sharing common characteristics which were anticipated might possibly affect the outcome of the statistical analysis. […] Chi-square analyses were used to compare survival percentages between and among various treatment groups at appropriate truncation points. Gehan-Wilcoxon Life Table Analyses were used to complement multivariate survival analyses in order to properly weight long-term survivors.

L1210 leukemia cells = experiment: Effect of methylene blue on anti-neoplastic activity of doxorubicin (Example IV); assay type: in vivo, CD2 F1 female mice
Method: A strain of leukemia identified as L1210 was obtained from Arthur Bogden of the E. G. Mason Research Institute Animal and Human Tumor Bank, Worcester, Massachusetts. The tumor was kept in passage in DBA female mice. The tumor used for the below described experiments was between its tenth and twentieth in vivo passage. […] The tumor grows in ascites, which is initially clear and proceeds, within the 24 to 36 hours prior to death, to become hemorrhagic.
Accordingly, it was determined to assess tne anti-tumor efficacy of doxorubicin administered with and without methylene blue. For these studies, 120, 12 to 14 week old female CD2 F1 mice were each given 70,000 live L1210 leukemia cells 4 hours after the lights were turned on in the cages. The mice were then randomly assigned to one of seven treatment groups.

in vivo = conditions: mouse, 550 mg/kg
[3] = previous studies in mice, dogs and humans; cited from earlier work
doxorubicin lethality [4] = experiment: Effects of methylene blue on anthracycline toxicity, survival, Study No. 1 (Example II)
[5] = test system: antibiotic-induced free radical-mediated damage; conditions: humans; cited from earlier work
[6] = Doxorubicin lethality, CD2 F1 mice; assay type: in vivo
[7] = Doxorubicin lethality, Balb/c mice; design: species or system Balb/c female mice; conditions: mouse, in vivo
cellular proteins = experiment: Examination of tissues after doxorubicin administration; conditions: tissues subsequent to doxorubicin administration
Text: The present inventor has likewise reasoned that the reduction of the oxidant stress-inducing antibiotics may be promoted by interaction with either NADH or NADPH, or their reducing proteins. […] It is therefore possible that the oxidation of NADH or NADPH may occur indirectly by the interaction of the antibiotic with these reducing proteins acting as mediators, either in addition to or in place of a direct interaction between the antibiotic and NADH or NADPH alone.

[8] = cited from earlier work
microsomal systems = conditions: from NADPH and NADH; cited from earlier work
[9] = test system: hepatic microsomes and heart sarcosomes; conditions: cited from earlier work
[10] = test system: cardiac submitochondrial particles; conditions: cited from earlier work
[11] = Effects of methylene blue on anthracycline toxicity, survival, Study No. 1 (Example II); conditions: mouse, in vivo, 18 mg/kg
[12] = test system: antibiotic-induced damage; conditions: tumor cells and normal host tissues; cited from earlier work

**Q.** Which results are given for `CN(C)c1ccc2nc3ccc(=[N+](C)C)cc-3sc2c1` [methylene blue, methylthionine chloride]?
**A.** mean hepatic GSH levels (hepatic GSH): 9.30±5.50 μMol/g protein; pleural fluid, pulmonary consolidation and ascites (heart; animals killed after saline and/or methylene blue only): never; visual appearance of hearts (heart; animals not receiving doxorubicin (saline and/or methylene blue)): appeared visually normal; heart damage score, with methylene blue (heart; doxorubicin 18 mg/kg plus methylene blue iv, normal score=1.0, f=2.3, p<0.1 and >0.05 (not significant)): 1.8±0.9; average survival, with methylene blue (doxorubicin lethality [1]; doxorubicin 18 mg/kg iv plus methylene blue 4 x 25 mg/kg (iv, then ip 1, 3, 6 h), 130 days, n=8, t=4.0, p<0.001): 113 ± 0.5 days; average survival, with methylene blue (doxorubicin lethality [2]; doxorubicin 18 mg/kg iv or ip plus methylene blue 25 mg/kg iv, f=10.8, p<0.001): 10.3 ± 1 days; survival, doxorubicin followed by methylene blue (L1210 leukemia cells; 70,000 L1210 cells, doxorubicin followed by methylene blue 25 mg/kg iv 30 min after, then sc 1.5-48 h): 14.7 ± 0.5 days; mortality (in vivo): 50%; tolerability at 25 mg/kg [3]: well tolerated; survival, methylene blue without doxorubicin (doxorubicin lethality [4]; saline and methylene blue iv, no doxorubicin, study follow-up period): lived throughout the study follow-up period

**Q.** With `Cc1c(C)c2c(c(C)c1O)CCC(C)(CCCC(C)CCCC(C)CCCC(C)C)O2` (stereo not drawn) [Vitamin E, α-tocopherol] as the molecule, how does the “effect on antibiotic-induced damage at tolerable doses” value [5] read?
**A.** failed to work at tolerable doses in humans

**Q.** For `COc1cccc2c1C(=O)c1c(O)c3c(c(O)c1C2=O)C[C@@](O)(C(=O)CO)C[C@@H]3O[C@H]1C[C@H](N)[C@H](O)[C@H](C)O1` [doxorubicin, 14-hydroxydaunomycin], which “visual appearance of hearts” value (heart; animals receiving doxorubicin) is on record?
**A.** often pale and had a patchy fibrotic appearance

**Q.** And the “most prominent heart finding” value (heart; animals which did not receive methylene blue)?
**A.** degeneration of myocytes

**Q.** And the “pleural fluid, pulmonary consolidation and ascites” value (heart; autopsy, animals which had received doxorubicin)?
**A.** often present

**Q.** What about the “heart damage score, without methylene blue” value (heart; doxorubicin 18 mg/kg, no methylene blue, normal score=1.0, f=2.3, p<0.1 and >0.05) of the same molecule?
**A.** 2.8±1.3

**Q.** And the “mean survival time, without methylene blue” value (doxorubicin lethality [1]; doxorubicin 18 mg/kg iv plus placebo, truncated at 130 days, n=7)?
**A.** 85 ± 7 days

**Q.** And the “average survival, doxorubicin intraperitoneally” value (doxorubicin lethality [2]; doxorubicin 18 mg/kg ip, f=27.4, p<0.001)?
**A.** 6.2 ± 0.8 days

**Q.** What about the “average survival, saline placebo” value (doxorubicin lethality [2]; doxorubicin 18 mg/kg iv or ip plus saline placebo, f=10.8, p<0.001) of the same molecule?
**A.** 7.2 ± 0.6 days

**Q.** What about the mortality (doxorubicin lethality [2]; doxorubicin 18 mg/kg iv or ip, with methylene blue or saline) of the same molecule?
**A.** All of the mice succumbed to doxorubicin

**Q.** What about the “average survival, doxorubicin intravenously” value (doxorubicin lethality [2]; doxorubicin 18 mg/kg iv, f=27.4, p<0.001) of the same molecule?
**A.** 11.2 ± 0.6 days

**Q.** And the “survival, doxorubicin and placebo” value (L1210 leukemia cells; 70,000 L1210 cells, doxorubicin and placebo)?
**A.** 14.4 ± 1.2 days

**Q.** What about the increased life span (L1210 leukemia cells; single doxorubicin treatment 3 days after tumor implantation, F=124, p<0.001) of the same molecule?
**A.** 160%

**Q.** And the “survival of CD2 F1 relative to Balb/c mice” value ([6]; 18 mg/kg iv, compared with Balb/c mice)?
**A.** more than 3 times longer

**Q.** What about the mortality at 720 h ([6]; mouse, in vivo, 18 mg/kg ip, 30 days, CD2 F1, read-out: mortality within 30 days, intraperitoneal) of the same molecule?
**A.** > 80%

**Q.** And the mortality ([6]; mouse, in vivo, 18 mg/kg iv, CD2 F1)?
**A.** ~100%

**Q.** And the mortality at 720 h ([7]; 18 mg/kg ip, 30 days, Balb/c female, read-out: mortality within 30 days, intraperitoneal)?
**A.** 100%

**Q.** And the mortality ([7]; 18 mg/kg iv, Balb/c)?
**A.** ~100%

**Q.** And the “complexation with cellular proteins” value (cellular proteins)?
**A.** some complexation

**Q.** What about the solubility [8] of the same molecule?
**A.** soluble in water, methanol and other aqueous alcohols but is practically insoluble in acetone, benzene, chloroform, ethyl ether and petroleum ether

**Q.** What about the free radical production (microsomal systems) of the same molecule?
**A.** causes the production of free radicals

**Q.** What about the oxygen consumption [9] of the same molecule?
**A.** increases oxygen consumption

**Q.** What about the superoxide formation [10] of the same molecule?
**A.** stimulates superoxide formation

**Q.** What about the mortality at 360 h [11] of the same molecule?
**A.** > 50%

**Q.** And the “effect of route of administration of doxorubicin” value (doxorubicin lethality [4]; doxorubicin 18 mg/kg iv vs ip, two-way analysis of variance)?
**A.** no significant effect of the particular route of administration

**Q.** Which “protection from antibiotic-induced damage” value [12] does the source give for `CC(=O)N[C@@H](CS)C(=O)O` [N-acetyl cysteine] here?
**A.** mixed results
